Measurements taken from patent US8951796B2, “Methods and compositions for expanding and stabilizing natural regulatory T cells” (University of Southern California, priority 2010, dated 2015).

Experiments:
CD4+CD25+ nTregs [1] = assay: Th17 conversion of nTregs stimulated with anti-CD3/CD28 and IL-6 (intracellular IL-17 FACS, soluble IL-17A ELISA); assay type: cell-based, DBA/1 mice
Protocol: (§1) To activate nTregs, CD25^+ or GFP^+ cells were stimulated with anti-CD3/CD28 coated beads (1:5, one bead to five cells), rmIL-2 (100 U/ml) (R&D) with DMSO or all-trans retinoic acid (atRA, 0.05 μM) for 3 days. To generate Th17 cells, these activated nTregs were stimulated with immobilized anti-CD3 (1 μg/ml), soluble anti-CD28 (1 μg/ml), anti-IL-4 (10 μg/ml) (BD biosciences), anti-IFN-γ and IL-6 (10 ng/ml) (BD Pharmingen) for 3 days.
Because atRA was dissolved in DMSO, similar volumes of DMSO was added to the cultures to exclude the possibility that atRA has a non-specific toxic effect on T cells (FIGS. 1A and B). For the data in FIGS. 1A and B, CD4^+CD25^+ cells were stimulated with immobilized anti-CD3 (1 μg/ml), soluble anti-CD28 (1 μg/ml) and IL-6 (10 ng/ml) with or without atRA (0.05 μM). 3 days later, these cells were restimulated with PMA (0.25 μg/ml) and ionomycin (0.25 μg/ml) for 5 h and brefeldin A (5 μg/ml) for 4 h, and then collected for intracellular IL-17 and IFN-γ staining. Values indicate mean±SEM of four separate experiments and representative of these experiments
(§2) In FIG. 1C, soluble IL-17A in the culture supernatants was analyzed by an ELISA. The horizontal line indicates the levels of IL-17A in the supernatant of naïve TCR-stimulated CD4^+ cells in the presence of IL-6 and TGF-β. E, the suppressive activities of nTregs in the presence of IL-6 and/or atRA were determined by the inhibition of tritiated thymidine ([^3H]-TdR) uptake.
For the experiments in FIG. 2D, CD4^+CD25^+ cells were activated as in FIG. 2A and re-stimulated with IL-6 as for the experiments in FIG. 1A described above. Intracellular IL-17 and IFN-γ expression was determined by FACS staining. Results are representative of three independent experiments. IL-17 and IFN-γ secreted into the supernatants was consistent with intracellular cytokine expression (data not shown).

[2] = system: nTregs isolated from CIA mice; assay: nTregs isolated from CIA mice: suppressive activity by proliferation of T responder cells; assay type: cell-based, mouse; settings: anti-CD3 1 μg/ml, IL-6 10 ng/ml, atRA 0.05 μM, 7 days
Protocol: For the experiments in FIG. 7A, nTregs isolated from CIA mice were stimulated with immobilized anti-CD3 (1 μg/ml) and IL-6 (10 ng/ml) with and without atRA (0.05 μM) for 7 days. Phenotypic stability was measured by FOXP3 expression and suppressive activity was determined by the proliferation of T responder cells. CMP indicates the value of T responder cells. Values in FIG. 7A indicate the mean±SEM of three independent experiments. In the experiments in FIG. 7B, nTregs from CIA mice were expanded with anti-CD3/CD28 beads (1:5) and IL-2 (100 U/ml)±atRA (0.05 μM) for 4 days. Mice with established CIA were injected intravenously with 1×10^6 atRA treated nTregs, DMSO treated nTregs or PBS (control group) (n=6/group). The mice were examined every five days after injection and the clinical scores are indicated.

T responder cells = assay: Suppressor assay: inhibition of [3H]-TdR uptake of T responder cells by nTregs; assay type: cell-based, DBA/1 mice
Protocol: To measure suppressive activities, responder T cells were stimulated with soluble anti-CD3 (0.025 μg/ml) and irradiated APC (1:1), nTregs pretreated with at-RA or without atRA were added to cultures at a ratio of 1:4 (one nTreg to four responder cells). After 72-hour cultures, triplicate wells were pulsed with 1 μCi of [^3H]-TdR for the final 16 hours. Cell proliferation was determined by [^3H]-TdR incorporation using scintillation counting.
as §2
In FIG. 2F, the suppressive activities of atRA or DMSO treated nTregs in the absence or presence of IL-6 in vitro was determined by similar methods as in FIG. 1E. P values were calculated by Student's test and indicate significant differences between atRA and control treated nTregs (P<0.05).

human nTregs = assay: Expansion and FOXP3 expression of human nTregs from peripheral blood; assay type: cell-based
Text: In addition to mouse nTregs, atRA also stabilized FOXP3 expression of human nTregs. nTregs were isolated from human peripheral blood and expanded with anti-CD3/28 coated beads with IL-2 in the presence or absence of atRA. […] By ten days of culture control FOXP3+ cells increased 5 fold, but atRA treated nTregs increased 20 fold.

[3] = system: IL-6R (CD126, CD130), STAT3, ROR-γt in nTregs; assay: IL-6 receptor expression and signaling in nTregs by flow cytometry; assay type: cell-based, mouse
Protocol: One potential mechanism by which atRA treatment stabilizes phenotype of nTregs, particularly suppressive function, may be through downregulation of the expression of IL-6R and IL-6R signaling. To investigate this potential mechanism, CD4^+CD25^+ cells were stimulated with anti-CD3/CD28 coated beads and IL-2 with or without atRA for 4 days. […] CD126 (IL-6Rα chain) expression was determined by flow cytometry. […] When atRA-treated nTregs were restimulated with IL-6, the decrease in IL-6 signaling was accompanied by a decrease of expression of ROR-γt (FIG. 4B), the crucial transcription factor required for Th17 cell differentiation. This finding is in agreement with reports that the combination of IL-2 and TGF-β has dramatic effects on both IL-6 receptor expression and signaling on nTreg cells. […] The p values indicate significant differences between DMSO treated and atRA treated nTregs (p<0.05, t test).

CD4+CD25+ nTregs [4] = assay: FOXP3 expression of activated/expanded nTregs by FACS intracellular staining; assay type: cell-based, DBA/1 mice
Protocol: as §1
For the experiments in FIG. 1D, nTregs were activated with anti-CD3/CD28 coated beads in the presence of the atRA solvent (DMSO) or atRA (0.05 μM) with or without IL-6 (10 ng/ml) for 3 days and Foxp3 expression was determined and compared to freshly isolated CD4^+CD25^+ cells by FACS intracellular staining.
(§3) For the data in FIGS. 2A and B, CD4^+CD25^+ cells were stimulated with anti-CD3/CD28 coated beads (1:5), rmIL-2 (100 U/ml) with DMSO or atRA (0.05 μM) for 7 days and the FOXP3 expression (A) and total Foxp3^+ cell numbers (B) were determined.

IL-6 Rα mRNA, p-Stat3 = settings: cited from earlier work
nTregs = assay: Expansion of nTregs with anti-CD3/28 coated beads and IL-2; assay type: cell-based, DBA/1 mice; settings: one week, IL-2, with atRA
Protocol: as §1, §3

[5] = anti-CD3/CD28 beads, IL-2, atRA, 4 days

Question: Which “activation and proliferation status of nTregs” value (CD4+CD25+ nTregs [1]; addition of atRA) does the source give for `CC1=C(/C=C/C(C)=C/C=C/C(C)=C/C(=O)O)C(C)(C)CCC1` [atRA, all-trans retinoic acid] here?
Answer: did not affect

Question: And the “intracellular IL-17 production” value (CD4+CD25+ nTregs [1]; atRA 0.05 μM added to cultures with IL-6 (10 ng/ml), 3 days)?
Answer: completely blocked

Question: And the “soluble IL-17 production” value (CD4+CD25+ nTregs [1]; atRA 0.05 μM added to cultures with IL-6 (10 ng/ml), ELISA of supernatants)?
Answer: completely blocked

Question: What about the “Th17 and Th1 conversion of expanded nTregs” value (CD4+CD25+ nTregs [1]; nTregs expanded with atRA, restimulated with anti-CD3/28 beads with IL-6) of the same compound?
Answer: completely resistant

Question: What about the “suppressive activity of nTregs from CIA mice” value [2] of the same compound?
Answer: show suppressive activity

Question: What about the “suppressive activity of nTregs in the presence of IL-6” value (T responder cells; atRA added to the cultures with IL-6) of the same compound?
Answer: maintained the suppressive activity

Question: What about the “T cell response with atRA alone” value (T responder cells; in the presence of IL-6, in the absence of nTregs) of the same compound?
Answer: did not suppress

Question: And the “suppressive function after restimulation with IL-6” value (T responder cells; nTregs expanded in the presence of atRA, washed)?
Answer: completely intact

Question: And the “suppressive activities of nTregs expanded with atRA” value (T responder cells; vs nTregs expanded without atRA)?
Answer: even superior

Question: What about the “total number of FOXP3+ cells” value (human nTregs; human nTregs) of the same compound?
Answer: significantly increased

Question: What about the “percentage of nTregs expressing FOXP3” value (human nTregs; human nTregs proliferating in culture, some cultures with IL-1 and/or IL-6) of the same compound?
Answer: decreased significantly less than control nTregs

Question: What about the “increase of FOXP3+ cells” value (human nTregs; human nTregs, ten days of culture) of the same compound?
Answer: 20 fold

Question: And the “Stat-3 activation in nTregs” value ([3]; addition of atRA)?
Answer: significantly decreased

Question: What about the “CD126 (IL-6Rα chain) expression in activated nTregs” value [3, 5] of the same compound?
Answer: markedly decreased

Question: And the “IL-6 Rβ (CD130) expression” value [3, 5]?
Answer: significantly decreased

Question: And the “expression of ROR-γt” value ([3]; atRA-treated nTregs restimulated with IL-6)?
Answer: decrease

Question: And the “FOXP3 expressed by nTregs expanded with atRA” value (CD4+CD25+ nTregs [4]; atRA 0.05 μM, IL-2 100 U/ml, 7 days)?
Answer: remained stable

Question: And the “down-regulation of FOXP3 expression in the presence of IL-6” value (CD4+CD25+ nTregs [4]; atRA 0.05 μM, IL-6 10 ng/ml, 3 days, vs DMSO cultures)?
Answer: almost completely prevented

Question: And the “FOXP3 expression following re-stimulation with IL-6” value (CD4+CD25+ nTregs [4]; nTregs previously treated with atRA)?
Answer: maintained FOXP3 expression

Question: And the “levels of p-Stat3 expression induced by IL-6 plus TGF-β” value (IL-6 Rα mRNA, p-Stat3)?
Answer: decreases

Question: What about the “up-regulation of IL-6 Rα mRNA induced by TGF-β” value (IL-6 Rα mRNA, p-Stat3) of the same compound?
Answer: strongly inhibits

Question: What about the “expansion of nTregs” value (nTregs) of the same compound?
Answer: eight-fold
